Columns and labels:
[1] = Stability of conjugates in Simulated Gastric Fluid (SGF); format: in vitro ADME; details: SGF pH 1.6 with pepsin, 37° C., 1 μM compound
Method: Assay 1. Stability of conjugates in Simulated Gastric Fluid (SGF). This assay was used to assess the stability of a conjugate in a stomach.
Medium was prepared by dissolving 2 g of sodium chloride in 0.6 L in ultrapure water (MilliQ®, Millipore Sigma, Darmstadt, Germany). The pH was adjusted to 1.6 with 1N hydrochloric acid, and the volume was then adjusted to 1 L with purified water.
60 mg FaSSIF powder (Biorelevant™, London, UK) were dissolved in 500 mL buffer (above). Pepsin was added (0.1 mg/mL) (Millipore Sigma, Darmstadt, Germany), and the solution was stirred. The resulting SGF media were used fresh for each experiment.
(§1) Test compounds were dissolved in DMSO stock to 1 mM. An aliquot of the DMSO stock solution was removed and diluted in the SGF Media in 15 mL falcon tubes to generate a total compound concentration of 1 μM. A 1 mL aliquot was immediately removed and diluted once with 1 volume of acetonitrile for TO timepoint. The mixture was sealed and mixed at 37° C. in an incubator. Aliquots (1 mL) were removed at regular intervals and immediately quenched by the addition of 1 volume of acetonitrile. The resulting samples were analyzed by LC/MS to determine degradation rates in SGF.

[2] = Stability of conjugates in Simulated Intestinal Fluid (SIF); format: in vitro ADME; details: SIF pH 6.7 with pancreatin, 37° C., 1 μM compound
Method: Assay 2. Stability of conjugates in Simulated Intestinal Fluid (SIF). This assay was used to assess the stability of a conjugate in a small intestine.
Phosphate buffer was prepared by dissolving 0.42 g of sodium hydroxide pellets and 3.95 g of monobasic sodium phosphate monohydrate and 6.19 g of sodium chloride in ultrapure water (MilliQ®, Millipore Sigma, Darmstadt, Germany). The pH was adjusted to 6.7 using aq. HCl and aq. NaOH, as necessary, and the solution was diluted with ultrapure water to produce 1 L of the pH 6.7 buffer.
112 mg FaSSIF powder (Biorelevant™, London, UK) was dissolved in 50 mL of the pH 6.7 buffer. 2 to 3 mL of the resulting solution were then added to 500 mg pancreatin (Millipore Sigma, Darmstadt, Germany). The resulting mixture was agitated by finger tapping the vessel containing the mixture until milky suspension formed. At this time, the remainder of the 50 mL FaSSiF/pH 6.7 buffer solution was added. The resulting suspension was flipped upside down 10 times to produce SIF, which was used fresh.
as §1, with “SIF media” for “SGF Media”, “produce” for “generate”, “mixture with a tested” for “total”, “agitated” for “mixed”, “rates” for “rates in SGF.”

| SMILES | Assay 1 (SGF) (% Remaining @ 1 hour) [1] | Assay 2 (SIF) (% @ Remaining 4 hours) [2] |
| --- | --- | --- |
| CCCC(=O)O[C@H]1[C@@H](OC(=O)CCC)[C@@H](CO)O[C@@H](OC(=O)/C=C/C(=O)OC)[C@@H]1OC(=O)CCC [Compound 44, 1-methyl (2S,3R,4S,5S,6R)-3,4,5-tris(butanoyloxy)-6-(hydroxymethyl)oxan-2-yl (2E)-but-2-enedioate] | C (C: >75% of the tested compound remaining) | A (A: <25% of the tested compound remaining) |
| CCC(=O)OC[C@H]1O[C@H](OC(=O)/C=C/C(=O)OC)[C@H](OC(=O)CC)[C@@H](OC(=O)CC)[C@H]1O [Compound 49, (2R,3R,4S,5S,6R)-5-hydroxy-3,4-bis(propanoyloxy)-6-[(propanoyloxy)methyl]oxan-2-yl 1-methyl (2E)-but-2-enedioate] | C (C: >75% of the tested compound remaining) | A (A: <25% of the tested compound remaining) |
| CCC(=O)O[C@@H]1[C@@H](OC(=O)CC)[C@@H](OC(=O)/C=C/C(=O)OC)O[C@H](C(=O)O)[C@H]1OC(=O)CC [Compound 26, (2S,3S,4S,5R,6R)-6-(((E)-4-methoxy-4-oxobut-2-enoyl)oxy)-3,4,5-tris(propionyloxy)tetrahydro-2H-pyran-2-carboxylic Acid] | C (C: >75% of the tested compound remaining) | A (A: <25% of the tested compound remaining) |
| CCC(=O)OC[C@H]1O[C@H](OC(=O)CC)[C@H](OC(=O)CC)[C@@H](OC(=O)CC)[C@H]1OC(=O)/C=C/C(=O)OC [Compound 52, 1-methyl (2R,3S,4S,5R,6R)-4,5,6-tris(propanoyloxy)-2-[(propanoyloxy)methyl]oxan-3-yl (2E)-but-2-enedioate] | C (C: >75% of the tested compound remaining) | A (A: <25% of the tested compound remaining) |
| COC(=O)/C=C/C(=O)Oc1ccc(-c2oc3cc(OC(=O)/C=C/C(=O)OC)cc(OC(=O)/C=C/C(=O)OC)c3c(=O)c2O)cc1 [Compound 56, O4-[4-[3-hydroxy-5,7-bis[[(E)-4-methoxy-4-oxo-but-2-enoyl]oxy]-4-oxo-chromen-2-yl]phenyl] O1-methyl (E)-but-2-enedioate] | C (C: >75% of the tested compound remaining) | A (A: <25% of the tested compound remaining) |
